We go through one molecule from patent publication US6372236B1, “Cream composition for skin care” (Doosan Corporation, priority 2000, dated 2002).

The test system of this assay is acne. The experiment in a line: Test on patients suffering from acne. In kind it is in vivo, human.

In the case of `CCCCCCCCCCCCCC[C@@H](O)[C@@H](O)[C@@H](N)CO` [phytosphingosine], the therapeutic efficacy result is on record as “good therapeutic efficacy”.
